In publication PMC10607100, “Anticancer and Antiphytopathogenic Activity of Fluorinated Isatins and Their Water-Soluble Hydrazone Derivatives” (International Journal of Molecular Sciences, 2023):
Values after ≈ are worked out from the molar mass of the structure shown. Where two headings read alike, the source gives them in different places.

How the values were obtained:
Micrococcus luteus B-109 = assay: Agar-well diffusion, bactericidal activity; type: cell-based
Text: (§1) Plant pathogenic bacterial strains Micrococcus luteus B-109, Pectobacterium atrosepticum 1043, Pectobacterium carotovorum subsp. carotovorum MI, Pseudomonas fluorescens EL-2.1, and Xanthomonas campestris B-610 and the fungal strain Fusarium oxysporum IBPPM 543 were from the Collection of Rhizosphere Microorganisms, IBPPM RAS (WFCC no. 975, WDCM no. 1021) (CM IBPPM, http://collection.ibppm.ru). The pathogenic fungus Phytophthora cactorum VKM F-985, provided by the All-Russian Collection of Microorganisms (VKM) and deposited at the A.E. Favorsky Irkutsk Institute of Chemistry, SB RAS, was also used as a test organism. Bacteria M. luteus, P. carotovorum subsp. carotovorum, P. atrosepticum, and P. fluorescens were grown in a meat–peptone medium (BP), and X. campestris was grown in the medium with glucose, yeast extract, and calcium carbonate (GYCa). Solid media contained Bacto agar (18 g/L); pH was adjusted to 7.2–7.4. All bacterial cultures were grown at 28 °C. The mycelial cultures of F. oxysporum and P. cactorum were grown on a glucose–peptone–yeast (GPY) nutrient medium at 27 °C. For inoculum preparation, both fungal strains were initially grown on the agar GPY in Petri dishes and then transferred into the seed medium by punching out 5 mm of the agar plate culture with a self-designed cutter.
(§2) The antibacterial and antifungal activities of the compounds were explored using the agar-well diffusion method and the technique of mycelial radial growth inhibition. The method of diffusion in agar (measuring the diameter of growth inhibition zones) was used to determine the bactericidal activity. The 6-mm wells were made in agar medium (GYCa for Xanthomonas campestris or BP for other bacteria). Bacterial suspensions were distributed over the agar surface, and the tested compound’s solution (150 μL) was added to each well. The width of growth inhibition zones around the wells was determined after incubation for 36–40 h.

[1] = test system: Pectobacterium atrosepticum 1043; assay: Agar-well diffusion, bactericidal activity; type: cell-based
Text: as §1, §2

[2] = test system: Pseudomonas fluorescens EL-2.1; assay: Agar-well diffusion, bactericidal activity; type: cell-based
Text: as §1, §2

[3] = test system: Pectobacterium carotovorum subsp. carotovorum MI; assay: Agar-well diffusion, bactericidal activity; type: cell-based
Text: as §1, §2

[4] = test system: Xanthomonas campestris B-610; assay: Agar-well diffusion, bactericidal activity; type: cell-based
Description: Bacteria M. luteus, P. carotovorum subsp. carotovorum, P. atrosepticum, and P. fluorescens were grown in a meat–peptone medium (BP), and X. campestris was grown in the medium with glucose, yeast extract, and calcium carbonate (GYCa). Solid media contained Bacto agar (18 g/L); pH was adjusted to 7.2–7.4. […] For inoculum preparation, both fungal strains were initially grown on the agar GPY in Petri dishes and then transferred into the seed medium by punching out 5 mm of the agar plate culture with a self-designed cutter.
as §2

HuTu 80 = assay: MTT cell viability test, HuTu 80; type: cell-based, human; conditions: Homo sapiens, HuTu80; incubation time 24 h
Description: (§3) Human cell cultures of tumor origin—HeLa (cervical tumor), HuTu 80 (human duodenal adenocarcinoma), ChangLiver (human liver HeLa-like line), and normal cell line WI38, VA 13 subline 2RA is a diploid human cell strain composed of fibroblasts derived from healthy lung tissue provided by The Gamaleya National Center for Epidemiology and Microbiology, as well as the Institute of Cytology of the Russian Academy of Sciences. They were grown in a nutrient medium DMEM (PanEco, Moscow, Russia) and MEM (PanEco, Moscow, Russia), containing fetal bovine serum (10% by volume) (ThermoFisher Scientific, Paisley, UK), Glutamax (2 mM) (Gibco, Scotland, UK), and penicillin-streptomycin (1% by volume) (PanEco, Moscow, Russia). The cultivation was carried out at 37 °C in a humidified CO2 atmosphere (5%).
(§4) Cell viability was determined by the MTT test. Cells were seeded in a 96-well plate in the amount of 1 × 10^4 cells/200 µL of complete nutrient medium and cultured at 37 °C in CO2 (5%). After 24 h of incubation, various concentrations of test compounds in the range of 0.1 to 100 μM were added to the cell cultures, and then the cells were cultured under the same conditions for 24 and 72 h. For each concentration, the experiment was carried out in triplicate.
(§5) All compounds were dissolved in DMSO and then diluted with the medium to the required concentration. […] The DMSO was also added to the control wells in a volume of 1%. After the incubation time, MTT (3-(4,5-dimethylthiazol-2-yl)-2,5-diphenyltetrazolium bromide, 5 mg/mL) was added to each well, and plates were additionally incubated for 2 h (until the characteristic color appeared).
(§6) Using a plate analyzer (Cytation3, BioTech Instruments Inc., Winooski, VT, USA), the optical density was determined at 530 nm.
(§7) The IC50 parameter was calculated using the AAT Bioquest program.
(§8) The selectivity index (SI) is calculated as the ratio between the IC50 for normal cells and the IC50 for cancer cells.

M-HeLa = assay: MTT cell viability test, M-HeLa; type: cell-based, human; conditions: Homo sapiens, M-HeLa; incubation time 24 h
Description: as §3, §4, §5, §6, §7, §8

Chang Liver = assay: MTT cell viability test, Chang liver; type: cell-based; conditions: Homo sapiens, incubation time 24 h
Description: as §3, §4, §5, §6, §7

[5] = test system: Fusarium oxysporum IBPPM 543; assay: Mycelial radial growth inhibition; type: cell-based; conditions: Fusarium oxysporum; for inhibition at 10 µg/mL / inhibition at 15 µg/mL / inhibition at 30 µg/mL / inhibition at 60 µg/mL: read-out: Inhibition value, I (%)
Text: as §1
(§9) For the fungicidal activity analysis, radial growth (colony diameters) of the fungi on a solid medium in the absence and in the presence of the compounds 5a–e and 7a–c solutions at various concentrations were compared. The method consisted of the following: A sterile GPY agar medium (20.0 mL), which was melted and then allowed to cool to approximately 60 °C, was mixed with the precisely measured volumes of the solutions under question and poured into a sterile Petri dish (90 mm i.d.). After the solidification of GPY agar, the media were inoculated by the fungus using 10-day-old cultures of F. oxysporum or P. cactorum. The inoculation was conducted by transferring a 5-mm (i.d.) GPY-agar block covered with mycelium to the center of the Petri dish, followed by incubation in a thermostat at 27 °C. The fungicidal effect was scored by the size of the mycelium colony on a Petri dish compared to the control without fungicidal admixtures to GPY agar. Each treatment was performed in at least four replicates in two independent experiments. The observation period ended when the control Petri dish was filled with mycelium (usually after 12 days). […] The solutions of the compounds were prepared with a concentration of 2 mmol/L (stock solution). For comparison, test compounds were also commonly applied as disinfecting agents, and antibiotics were used as a positive control.

[6] = test system: Phytophthora cactorum VKM F-985; assay: Mycelial radial growth inhibition; type: cell-based; conditions: Phytophthora cactorum; for inhibition at 10 µg/mL / inhibition at 15 µg/mL / inhibition at 30 µg/mL / inhibition at 60 µg/mL: read-out: Inhibition value, I (%)
Text: as §1, §9

N=C(NCCCCCCNC(=N)NC(=N)Nc1ccc(Cl)cc1)NC(=N)Nc1ccc(Cl)cc1 [Chlorohexidin, chlorohexidin, reference compound]
width of the inhibition zone (mm), M. luteus (Micrococcus luteus B-109; 500 μg/mL): 5 mm
width of the inhibition zone (mm), P. atrosepticum ([1]; 500 μg/mL): 4 mm
width of the inhibition zone (mm), Ps. fluorescens ([2]; 500 μg/mL): 4 mm
width of the inhibition zone (mm), P. carotovorum subsp. carotovorum ([3]; 500 μg/mL): 5 mm
width of the inhibition zone (mm), X. campestris ([4]; 500 μg/mL): 5 mm

O=C1C(=O)N(Cc2c(F)cccc2F)c2ccc(F)cc21 [Compound 3c, 1-(2,6-Difluorobenzyl)-5-fluoroindoline-2,3-dione]
IC50 (HuTu 80): 41.2 ± 2.7 µM
IC50 (M-HeLa): 65.7 ± 5.9 µM
melting point: 131 to 132 °C
IC50 (Chang Liver): 95.5 ± 8 µM

O=C1C(=O)N(Cc2cccc(C(F)(F)F)c2)c2ccc(F)cc21 [Compound 3e, 5-Fluoro-1-(3-(trifluoromethyl)benzyl)indoline-2,3-dione]
melting point: 170 to 171 °C

O=C1C(=O)N(Cc2c(F)c(F)c(F)c(F)c2F)c2ccc(F)cc21 [Compound 3f, 5-Fluoro-1-((perfluorophenyl)methyl)indoline-2,3-dione]
IC50 (HuTu 80): 92 ± 6.4 µM
IC50 (M-HeLa): 100 ± 7.4 µM
melting point: 112 to 113 °C
IC50 (Chang Liver): > 100 µM

Cc1ccc(CN2C(=O)C(=O)c3cc(F)ccc32)cc1 [Compound 4a, 5-Fluoro-1-(4-methylbenzyl)indoline-2,3-dione]
IC50 (HuTu 80): 44 ± 2.9 µM
IC50 (M-HeLa): 44.7 ± 3.3 µM
melting point: 111 to 112 °C
IC50 (Chang Liver): 80 ± 5.8 µM

O=C1C(=O)N(Cc2ccc(F)cc2Cl)c2ccccc21 [Compound 8a]
IC50 (HuTu 80): 64 ± 4.5 µM
IC50 (M-HeLa): 50 ± 3.7 µM
IC50 (Chang Liver): > 100 µM

O=C1C(=O)N(Cc2ccc(Br)cc2F)c2ccccc21 [Compound 8b]
IC50 (HuTu 80): 59.4 ± 4.2 µM
IC50 (M-HeLa): 40 ± 2.8 µM
IC50 (Chang Liver): 100 ± 8.4 µM

O=C1C(=O)N(Cc2c(F)cccc2F)c2ccccc21 [Compound 8c]
IC50 (HuTu 80): 50.3 ± 3.6 µM
IC50 (M-HeLa): 98.8 ± 6.9 µM
IC50 (Chang Liver): 79 ± 5.5 µM

O=C1C(=O)N(Cc2c(F)c(F)c(F)c(F)c2F)c2ccccc21 [Compound 8d]
IC50 (HuTu 80): 54.1 ± 3.9 µM
IC50 (M-HeLa): > 100 µM
IC50 (Chang Liver): > 100 µM

N#Cc1c[nH]cc1-c1cccc2c1OC(F)(F)O2 [Fludioxonil, fludioxonil, reference compound]
inhibition at 10 µg/mL ([5]; IBPPM543, 72 h): 18%
inhibition at 15 µg/mL ([5]; IBPPM543, 72 h): 21%
inhibition at 30 µg/mL ([5]; IBPPM543, 72 h): 26%
inhibition at 60 µg/mL ([5]; IBPPM543, 72 h): 32%
EC50 ([5]; IBPPM543, 120 h, read-out: EC50, µg/mL at Day 5, F. oxysporum): 83.3 µg/mL (≈ 336 µM)
inhibition at 10 µg/mL ([5]; IBPPM543, 120 h): 23%
inhibition at 15 µg/mL ([5]; IBPPM543, 120 h): 30%
inhibition at 30 µg/mL ([5]; IBPPM543, 120 h): 33%
inhibition at 60 µg/mL ([5]; IBPPM543, 120 h): 35%
inhibition at 10 µg/mL ([5]; IBPPM543, 168 h): 6%
inhibition at 15 µg/mL ([5]; IBPPM543, 168 h): 20%
inhibition at 30 µg/mL ([5]; IBPPM543, 168 h): 23%
inhibition at 60 µg/mL ([5]; IBPPM543, 168 h): 25%
inhibition at 10 µg/mL ([5]; IBPPM543, 216 h): 4%
inhibition at 15 µg/mL ([5]; IBPPM543, 216 h): 5%
inhibition at 30 µg/mL ([5]; IBPPM543, 216 h): 8%
inhibition at 60 µg/mL ([5]; IBPPM543, 216 h): 9%
inhibition at 10 µg/mL ([6]; 72 h): 36%
inhibition at 15 µg/mL ([6]; 72 h): 38%
inhibition at 30 µg/mL ([6]; 72 h): 40%
inhibition at 60 µg/mL ([6]; 72 h): 52%
EC50 ([6]; 120 h, read-out: EC50, µg/mL at Day 5, P. cactorum): 29.5 µg/mL (≈ 119 µM)
inhibition at 10 µg/mL ([6]; 120 h): 38%
inhibition at 15 µg/mL ([6]; 120 h): 46%
inhibition at 30 µg/mL ([6]; 120 h): 51%
inhibition at 60 µg/mL ([6]; 120 h): 57%
inhibition at 10 µg/mL ([6]; 168 h): 35%
inhibition at 15 µg/mL ([6]; 168 h): 42%
inhibition at 30 µg/mL ([6]; 168 h): 46%
inhibition at 60 µg/mL ([6]; 168 h): 49%
inhibition at 10 µg/mL ([6]; 216 h): 9%
inhibition at 15 µg/mL ([6]; 216 h): 17%
inhibition at 30 µg/mL ([6]; 216 h): 23%
inhibition at 60 µg/mL ([6]; 216 h): 29%

CCn1cc(C(=O)O)c(=O)c2cc(F)c(N3CCNCC3)cc21 [Norfloxacin, norfloxacin, reference compound]
zone of inhibition at 500 µg/mL (Micrococcus luteus B-109; Micrococcus luteus, B109, 500 μg/mL, read-out: width of the inhibition zone (mm), M. luteus): 7 mm
zone of inhibition at 500 µg/mL ([1]; Pectobacterium atrosepticum, 1043, 500 μg/mL, read-out: width of the inhibition zone (mm), P. atrosepticum): 7 mm
zone of inhibition at 500 µg/mL ([2]; Pseudomonas fluorescens, EL2.1, 500 μg/mL, read-out: width of the inhibition zone (mm), Ps. fluorescens): 8 mm
zone of inhibition at 500 µg/mL ([3]; Pectobacterium carotovorum, 500 μg/mL, read-out: width of the inhibition zone (mm), P. carotovorum subsp. carotovorum): 8 mm
zone of inhibition at 500 µg/mL ([4]; Xanthomonas campestris, B610, read-out: width of the inhibition zone (mm), X. campestris): 7 mm

[Na+].[O-]Cl [sodium hypochlorite, reference compound]
width of the inhibition zone (mm), M. luteus (Micrococcus luteus B-109; 1000 μg/mL): 2.5 mm
width of the inhibition zone (mm), P. atrosepticum ([1]; 1000 μg/mL): 4 mm
width of the inhibition zone (mm), Ps. fluorescens ([2]; 1000 μg/mL): 4 mm
width of the inhibition zone (mm), P. carotovorum subsp. carotovorum ([3]; 1000 μg/mL): 3 mm
width of the inhibition zone (mm), X. campestris ([4]; 1000 μg/mL): 4 mm
